Some results are limits rather than exact numbers.

The record followed here is patent US20230295166A1, “ATR INHIBITORS AND USES THEREOF” (ANTENGENE DISCOVERY LIMITED, priority 2020, published 2023).

The target of one assay is ATR kinase (Homo sapiens (Human), UniProt Q13535). Description: ATR inhibition assay (mobility shift assay, phosphorylation of FAM-RAD17). It is filed as biochemical. The note with it: ATR kinase (Eurofins), substrate FAM-RAD17, mobility shift. On the procedure: Assay 1: ATR Inhibition Assay
Sequence of ATR kinase (Q13535 whole entry): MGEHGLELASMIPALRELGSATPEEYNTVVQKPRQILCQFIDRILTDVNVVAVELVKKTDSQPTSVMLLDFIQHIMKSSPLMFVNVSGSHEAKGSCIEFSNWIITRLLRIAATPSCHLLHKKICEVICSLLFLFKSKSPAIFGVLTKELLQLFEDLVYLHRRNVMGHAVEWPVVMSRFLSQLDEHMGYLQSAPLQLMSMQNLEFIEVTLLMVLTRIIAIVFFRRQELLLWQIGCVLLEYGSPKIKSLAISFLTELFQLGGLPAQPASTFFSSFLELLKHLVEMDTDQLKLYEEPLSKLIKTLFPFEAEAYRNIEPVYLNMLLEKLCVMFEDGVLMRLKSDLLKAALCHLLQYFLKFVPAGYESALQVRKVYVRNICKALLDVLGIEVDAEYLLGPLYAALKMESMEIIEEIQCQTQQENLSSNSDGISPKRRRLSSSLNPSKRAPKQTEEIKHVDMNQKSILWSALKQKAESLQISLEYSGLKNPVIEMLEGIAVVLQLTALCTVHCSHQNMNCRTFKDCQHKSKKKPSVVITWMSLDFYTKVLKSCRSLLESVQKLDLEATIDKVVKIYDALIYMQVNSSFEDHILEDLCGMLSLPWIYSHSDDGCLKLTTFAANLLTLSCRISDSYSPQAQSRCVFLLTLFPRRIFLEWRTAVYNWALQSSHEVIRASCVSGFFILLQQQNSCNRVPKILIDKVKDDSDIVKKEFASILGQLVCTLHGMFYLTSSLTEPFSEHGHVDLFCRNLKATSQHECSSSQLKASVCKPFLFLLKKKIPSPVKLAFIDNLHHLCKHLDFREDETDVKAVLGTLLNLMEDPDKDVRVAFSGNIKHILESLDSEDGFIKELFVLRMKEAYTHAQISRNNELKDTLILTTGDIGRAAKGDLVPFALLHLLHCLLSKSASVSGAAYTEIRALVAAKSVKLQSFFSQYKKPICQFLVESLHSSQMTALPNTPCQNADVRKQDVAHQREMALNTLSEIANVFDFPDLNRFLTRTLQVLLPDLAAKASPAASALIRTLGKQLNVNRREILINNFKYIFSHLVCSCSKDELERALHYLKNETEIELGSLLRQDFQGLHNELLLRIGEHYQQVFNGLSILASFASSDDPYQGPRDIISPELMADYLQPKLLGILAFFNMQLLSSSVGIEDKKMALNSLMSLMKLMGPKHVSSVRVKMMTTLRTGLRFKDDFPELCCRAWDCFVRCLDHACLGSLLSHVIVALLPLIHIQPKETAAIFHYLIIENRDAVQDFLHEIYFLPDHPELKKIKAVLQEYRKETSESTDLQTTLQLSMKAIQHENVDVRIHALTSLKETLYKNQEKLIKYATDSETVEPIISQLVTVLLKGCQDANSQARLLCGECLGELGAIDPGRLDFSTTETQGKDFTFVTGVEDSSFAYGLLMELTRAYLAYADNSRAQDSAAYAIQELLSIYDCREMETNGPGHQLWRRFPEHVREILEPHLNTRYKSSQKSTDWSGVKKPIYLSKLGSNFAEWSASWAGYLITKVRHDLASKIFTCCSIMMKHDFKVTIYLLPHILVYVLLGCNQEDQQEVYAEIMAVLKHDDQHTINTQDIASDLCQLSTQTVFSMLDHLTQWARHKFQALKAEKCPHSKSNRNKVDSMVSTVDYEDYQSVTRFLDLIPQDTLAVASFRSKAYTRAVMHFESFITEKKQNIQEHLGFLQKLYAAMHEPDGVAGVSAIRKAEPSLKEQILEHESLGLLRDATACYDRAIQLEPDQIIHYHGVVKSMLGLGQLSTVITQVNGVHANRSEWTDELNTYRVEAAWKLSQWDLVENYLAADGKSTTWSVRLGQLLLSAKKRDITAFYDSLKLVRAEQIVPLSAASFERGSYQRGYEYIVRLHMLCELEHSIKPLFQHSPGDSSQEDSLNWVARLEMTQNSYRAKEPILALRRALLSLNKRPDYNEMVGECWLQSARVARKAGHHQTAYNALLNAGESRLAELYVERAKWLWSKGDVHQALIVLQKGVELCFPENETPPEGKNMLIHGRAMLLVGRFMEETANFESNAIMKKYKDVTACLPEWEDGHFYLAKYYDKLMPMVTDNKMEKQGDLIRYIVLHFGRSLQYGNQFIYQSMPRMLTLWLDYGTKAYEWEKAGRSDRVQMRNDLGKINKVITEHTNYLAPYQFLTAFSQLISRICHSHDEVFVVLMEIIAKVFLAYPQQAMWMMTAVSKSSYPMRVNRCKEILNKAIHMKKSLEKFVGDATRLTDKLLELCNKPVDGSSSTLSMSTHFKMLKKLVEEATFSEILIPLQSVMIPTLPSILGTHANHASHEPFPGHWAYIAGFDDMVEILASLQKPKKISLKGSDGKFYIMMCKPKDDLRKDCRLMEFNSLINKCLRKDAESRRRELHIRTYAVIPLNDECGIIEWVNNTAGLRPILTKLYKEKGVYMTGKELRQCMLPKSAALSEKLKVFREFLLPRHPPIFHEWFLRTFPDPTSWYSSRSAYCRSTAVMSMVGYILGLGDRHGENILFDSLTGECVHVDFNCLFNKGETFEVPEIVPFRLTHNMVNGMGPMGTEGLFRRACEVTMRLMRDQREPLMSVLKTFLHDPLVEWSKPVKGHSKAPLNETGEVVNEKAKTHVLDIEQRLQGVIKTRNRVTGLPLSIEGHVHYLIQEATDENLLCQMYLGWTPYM
Sequence of ATR kinase (Q8WXE1 whole entry partner): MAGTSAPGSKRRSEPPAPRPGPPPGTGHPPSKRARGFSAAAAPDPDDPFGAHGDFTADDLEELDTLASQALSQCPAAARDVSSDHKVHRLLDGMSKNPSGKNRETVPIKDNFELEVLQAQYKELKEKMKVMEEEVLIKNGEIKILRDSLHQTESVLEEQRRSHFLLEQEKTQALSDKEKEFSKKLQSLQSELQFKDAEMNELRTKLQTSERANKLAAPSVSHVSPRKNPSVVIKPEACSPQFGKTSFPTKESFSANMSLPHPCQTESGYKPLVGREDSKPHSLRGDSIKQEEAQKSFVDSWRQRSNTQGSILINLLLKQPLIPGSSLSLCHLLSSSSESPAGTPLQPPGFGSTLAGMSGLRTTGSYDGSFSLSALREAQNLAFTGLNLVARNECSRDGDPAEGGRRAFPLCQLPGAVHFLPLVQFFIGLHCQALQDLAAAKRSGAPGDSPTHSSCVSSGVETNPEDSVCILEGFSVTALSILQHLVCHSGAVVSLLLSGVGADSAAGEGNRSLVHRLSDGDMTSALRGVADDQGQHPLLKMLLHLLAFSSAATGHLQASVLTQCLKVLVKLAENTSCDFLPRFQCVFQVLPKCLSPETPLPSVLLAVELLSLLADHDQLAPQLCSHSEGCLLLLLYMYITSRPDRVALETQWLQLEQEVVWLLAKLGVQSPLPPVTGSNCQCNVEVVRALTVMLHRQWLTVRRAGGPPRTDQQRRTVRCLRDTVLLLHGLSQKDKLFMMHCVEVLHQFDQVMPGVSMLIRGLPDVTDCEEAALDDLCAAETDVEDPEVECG
Detection of ATR kinase activity utilized the Mobility shift assay to measure the phosphorylation of the substrate protein FAM-RAD17 (GL, Cat. No. 514318, Lot. No. P19042-MJ524315). The assay was developed and conducted at Chempartner. All the test compounds were dissolved in 100% DMSO at concentration of 20 mM, then prepare compounds and conducted the assay as follows: • 1) Transfer 80 μl 20 mM compound to 40 μl of 100% DMSO in a 96-well plate. • 2) Serially dilute the compound by transferring 20 μl to 60 μl of 100% DMSO in the next well and so forth for a total of 10 concentrations. • 3) Add 100 μl of 100% DMSO to two empty wells for no compound control and no enzyme control in the same 96-well plate. Mark the plate as source plate. • 4) Transfer 40 μl of compound from source plate to a new 384-well plate as the intermediate plate. • 5) Transfer 60 nl compounds to assay plate by Echo. • 6) Add ATR kinase (Eurofins, Cat. No. 14-953, Lot. No. D14 JP007N) into Kinase base buffer (50 mM HEPES, pH 7.5; 0.0015% Brij-35; 0.01% Triton) to prepare 2× enzyme solution, then add 10 μl of 2× enzyme solution to each well of the 384-well assay plate, incubate at room temperature for 10 min. • 7) Add FAM-RAD17 and ATP (Sigma, Cat. No. A7699-1G, CAS No. 987-65-5) in the kinase base buffer to prepare 2×peptide solution, then add 10 μl to the assay plate. • 8) Incubate at 28° C. for specified period of time. Add 40 μl of stop buffer (100 mM HEPES, pH 7.5; 0.015% Brij-35; 0.2% Coating Reagent #3; 50 mM EDTA) to stop reaction. • 9) Collect data on Caliper. Convert conversion values to inhibition values.
Percent inhibition=(max−conversion)/(max−min)*100 wherein “max” stands for DMSO control; “min” stands for low control.
Fit the data in XLFit excel add-in version 5.4.0.8 to obtain IC50 values. Equation used is:
Y=Bottom+(Top−Bottom)/(1+(IC50/X)^HillSlope) wherein X means concentration in a format not transformed to logarithms.
As usually defined, the IC50 is the concentration that inhibits the measured activity by half. `C[C@@H]1COCCN1c1cc(-c2ccnn2C)n2ncc(-c3cccnc3)c2n1` [Example 3, (R)-3-methyl-4-(7-(1-methyl-1H-pyrazol-5-yl)-3-(pyridin-3-yl)pyrazolo[1,5-a]pyrimidin-5-yl)morpholine]: the IC50 was 100 to 500 nM.

On to `CCP(=O)(CC)c1cc(N2CCOC[C@H]2C)nn2c(-c3ccn[nH]3)ncc12` [Example 39, (3R)-4-[4-(diethylphosphoryl)-7-(1H-pyrazol-5-yl)imidazo[1,5-b]pyridazin-2-yl]-3-methylmorpholine], for which the IC50 was below 100 nM.

For `C[C@@H]1COCCN1c1cc(C2(S(C)(=O)=O)CC2)n2ncc(-c3cc[nH]c3)c2n1` [Example 9, (R)-3-methyl-4-(7-(1-(methylsulfonyl)cyclopropyl)-3-(1H-pyrrol-3-yl)pyrazolo[1,5-a]pyrimidin-5-yl)morpholine], the IC50 is below 100 nM.

`C[C@@H]1COCCN1c1cc(C2(S(C)(=O)=O)CC2)n2ncc(-c3ccc[nH]3)c2n1` [Example 8, (R)-3-methyl-4-(7-(1-(methylsulfonyl)cyclopropyl)-3-(1H-pyrrol-2-yl)pyrazolo[1,5-a]pyrimidin-5-yl)morpholine]: the IC50 is below 100 nM.

The next assay deals with LoVo (CCL-229) cells. Description: Tumor cell anti-proliferation assay (CTG assay). It is filed as cell-based. The note with it: LoVo human colorectal cancer cells, 96 h, CellTiter-Glo. On the procedure:
Assay 2: Tumor Cell Anti-proliferation Assay (CTG Assay)
Human colorectal cancer cells HT-29 (HTB-38) and LoVo (CCL-229) were selected for the CTG assay, the two cell lines were originally obtained from the American Type Culture Collection (ATCC). FBS and appropriate additives were added into base medium to prepare complete medium, then the cell layer was briefly rinsed with 0.25% (w/v) Trypsin-0.038% (w/v) EDTA solution to remove all traces of serum that contains trypsin inhibitor. After that, appropriate volume of Trypsin-EDTA solution was added to flask and cells under an inverted microscope were observed until cell layer was dispersed. At last, appropriate volume of complete growth medium was added and cells were aspirated by gently pipetting. Numbers were collected and counted with Vi-cell XR and cell density was adjusted, cells were seeded into 96-well opaque-walled clear bottom tissue-culture treated plates in the CO2 incubator for 20-24 hours. All the test compounds were at 10 mM in DMSO. Compounds were then added to the cell media in 3-fold serial dilutions, the final DMSO concentration was 0.5%. Plates were incubated for 96 h at 5% CO2, 37° C. Before the measurement, the appropriate volume of CellTiter-Glo Buffer was transferred into the amber bottle containing CellTiter-Glo substrate to reconstitute the lyophilized enzyme/substrate mixture, mixed gently, thereby forming the CellTiter-Glo Reagent (Promega Cat. No. G7573). The plate and its contents were equilibrated to room temperature for approximately 30 minutes, then 100 μL of CellTiter-Glo Reagent was added to the assay plate, the contents were mixed for 2 minutes on an orbital shaker to induce cell lysis, incubated at room temperature for 10 minutes to stabilize luminescent signal. At last the clear bottom was pasted with white back seal and luminescence was recorded with Enspire. IC50 and GI50 values were calculated with XLFit curve fitting software using 4 Parameter Logistic Model Y=Bottom+(Top−Bottom)/(1+(IC50/X)^HillSlope).
A general note: In ATP-based viability assays light output follows the ATP content of the culture.
Regarding `C[C@@H]1COCCN1c1cc(-c2ccnn2C)n2ccc(-c3ccn[nH]3)c2n1` [Example 28, (R)-3-methyl-4-(4-(1-methyl-1H-pyrazol-5-yl)-8-(1H-pyrazol-5-yl)pyrrolo[1,2-a]pyrimidin-2-yl)morpholine], the IC50 is 471 nM.

The molecule `C[C@@H]1COCCN1c1cc(C(C)(C)C#N)c2cnc(-c3ccn[nH]3)n2n1` [Example 40, (R)-2-methyl-2-(2-(3-methylmorpholino)-7-(1H-pyrazol-5-yl)imidazo[1,5-b]pyridazin-4-yl)propanenitrile] came in with an IC50 of 23.8 nM.

For `Cc1cc(-c2nsc3c(C4(C(N)=O)CCCCC4)cc(N4CCOC[C@H]4C)nc23)[nH]n1` [Example 88, (R)-1-(3-(3-methyl-1H-pyrazol-5-yl)-5-(3-methylmorpholino)isothiazolo[4,5-b]pyridin-7-yl)cyclohexane-1-carboxamide], the IC50 worked out at 1 nM.

For the molecule `Cc1cc(-c2nsc3c(N4CCCCS4(=O)=O)cc(N4CCOC[C@H]4C)nc23)[nH]n1` [Example 82, 2-[3-(3-methyl-1H-pyrazol-5-yl)-5-[(3R)-3-methylmorpholin-4-yl]-[1,2]thiazolo[4,5-b]pyridin-7-yl]-1λ^6,2-thiazinane-1,1-dione], inhibition was half-maximal at 20 nM (IC50).

Molecule `Cc1cc(-c2cnc3c(-c4ccnn4C)cc(N4CCOC[C@H]4C)nn23)[nH]n1` [Example 23, (R)-3-methyl-4-(8-(1-methyl-1H-pyrazol-5-yl)-3-(3-methyl-1H-pyrazol-5-yl)imidazo[1,2-b]pyridazin-6-yl)morpholine] had an IC50 of 446 nM.

Regarding `Cc1nc(-c2ccn[nH]2)n2nc(N3CCOC[C@H]3C)cc(-c3ccnn3C)c12` [Example 36, (R)-3-methyl-4-(5-methyl-4-(1-methyl-1H-pyrazol-5-yl)-7-(1H-pyrazol-5-yl)imidazo[1,5-b]pyridazin-2-yl)morpholine], the IC50 stood at 17.8 nM.

Take `C[C@@H]1COCCN1c1cc(C(C)(C)S(C)(=O)=O)c2cnc(-c3ccn[nH]3)n2n1` [Example 41, (3R)-4-[4-(2-methanesulfonylpropan-2-yl)-7-(1H-pyrazol-5-yl)imidazo[1,5-b]pyridazin-2-yl]-3-methylmorpholine]: 86.6 nM corresponded to half-maximal inhibition (IC50).

Molecule `Cc1cc(-c2nsc3c(C4(CO)CCOCC4)cc(N4CCOC[C@H]4C)nc23)[nH]n1` [Example 105, (R)-(4-(3-(3-methyl-1H-pyrazol-5-yl)-5-(3-methylmorpholino)isothiazolo[4,5-b]pyridin-7-yl)tetrahydro-2H-pyran-4-yl)methanol] yielded an IC50 of 9 nM.

The molecule `Cc1nnn(C)c1-c1cc(N2CCOC[C@H]2C)nn2c(-c3ccn[nH]3)nc(C)c12` [Example 45, (3R)-4-[4-(dimethyl-1H-1,2,3-triazol-5-yl)-5-methyl-7-(1H-pyrazol-5-yl)imidazo[1,5-b]pyridazin-2-yl]-3-methylmorpholine] gave an IC50 of 81.7 nM.

Consider `Cc1cc(-c2nsc3c(C(C)(C)CO)cc(N4CCOC[C@H]4C)nc23)[nH]n1` [Example 97, (R)-2-methyl-2-(3-(3-methyl-1H-pyrazol-5-yl)-5-(3-methylmorpholino)isothiazolo[4,5-b]pyridin-7-yl)propan-1-ol], for which the IC50 came to 10 nM.

`Cc1cc(-c2nsc3c(-c4cccnc4C(F)(F)F)cc(N4CCOC[C@H]4C)nc23)[nH]n1` [Example 96, (3R)-3-methyl-4-[3-(3-methyl-1H-pyrazol-5-yl)-7-[2-(trifluoromethyl)pyridin-3-yl]-[1,2]thiazolo[4,5-b]pyridin-5-yl]morpholine] came in with an IC50 of 32.7 nM.

Molecule `Cc1cc(-c2nsc3c(-c4c(C)cnn4C)cc(N4CCOC[C@H]4C)nc23)[nH]n1` [Example 71, (R)-4-(7-(1,4-dimethyl-1H-pyrazol-5-yl)-3-(3-methyl-1H-pyrazol-5-yl)isothiazolo[4,5-b]pyridin-5-yl)-3-methylmorpholine] displayed an IC50 of 23 nM.

Regarding `Cc1cc(-c2nsc3c(C4(S(C)(=N)=O)CC4)cc(N4CCOC[C@H]4C)nc23)[nH]n1` (stereo partly drawn) [Example 94, imino(methyl)(1-(3-(3-methyl-1H-pyrazol-5-yl)-5-((R)-3-methylmorpholino)isothiazolo[4,5-b]pyridin-7-yl)cyclopropyl)-16-sulfanone], inhibition was half-maximal at 12 nM (IC50).

In the case of `Cc1cc(-c2nsc3c(-c4c(C)noc4C)cc(N4CCOC[C@H]4C)nc23)[nH]n1` [Example 73, (R)-4-(7-(3,5-dimethylisoxazol-4-yl)-3-(3-methyl-1H-pyrazol-5-yl)isothiazolo[4,5-b]pyridin-5-yl)-3-methylmorpholine], the IC50 came out at 41 nM.

Consider `C[C@@H]1COCCN1c1cc(C(C)(C)CO)c2snc(-c3ccn[nH]3)c2n1` [Example 100, (R)-2-methyl-2-(5-(3-methylmorpholino)-3-(1H-pyrazol-5-yl)isothiazolo[4,5-b]pyridin-7-yl)propan-1-ol], for which the IC50 was found to be 16 nM.

Regarding `Cc1cc(-c2ncc3c(-c4c(C)nnn4C)cc(N4CCOC[C@H]4C)nn23)[nH]n1` [Example 35, (3R)-4-(4-(1,4-dimethyl-1H-1,2,3-triazol-5-yl)-7-(3-methyl-1H-pyrazol-5-yl)imidazo[1,5-b]pyridazin-2-yl)-3-methylmorpholine], the IC50 was found to be 129 nM.

`Cc1cc(-c2nsc3c(C(C)(C)C#N)cc(N4CCOC[C@H]4C)nc23)[nH]n1` [Example 54, (R)-2-methyl-2-(3-(3-methyl-1H-pyrazol-5-yl)-5-(3-methylmorpholino)isothiazolo[4,5-b]pyridin-7-yl)propanenitrile] yielded an IC50 of 66.7 nM.

`Cc1cc(-c2nsc3c(C4(O)CCCC4)cc(N4CCOC[C@H]4C)nc23)[nH]n1` [Example 106, (R)-1-(3-(3-methyl-1H-pyrazol-5-yl)-5-(3-methylmorpholino)isothiazolo[4,5-b]pyridin-7-yl)cyclopentan-1-ol] gave an IC50 of 46 nM.

`Cc1cc(-c2nsc3c(-c4cnnn4C)cc(N4CCOC[C@H]4C)nc23)[nH]n1` [Example 68, (R)-3-methyl-4-(7-(1-methyl-1H-1,2,3-triazol-5-yl)-3-(3-methyl-1H-pyrazol-5-yl)isothiazolo[4,5-b]pyridin-5-yl)morpholine] showed an IC50 of 16 nM.
